# ChEMBL document CHEMBL4261614, “Discovery of traditional Chinese medicine monomers and their synthetic intermediates, analogs or derivatives for battling P-gp-mediated multi-drug resistance” (Eur J Med Chem, 2018)
# Tests used:
# Homo sapiens = species on record: Homo sapiens; assay: Inhibition of P-gp in human KBv200 cells assessed as potentiation of vincristine-induced cytotoxicity by measuring reduction in vincristine IC50 at 25 uM after 96 hrs by […] relative to vincristine alone; type: cell-based
# [1] = biological target: ATP-dependent translocase ABCB1 (Homo sapiens, UniProt P08183); assay: Inhibition of MDR1 (unknown origin) expressed in MDCK-MDR1 cells assessed as increase in Rh123 accumulation at 100 uM after 30 mins by spectrofluorometric analysis relative to control; type: cell-based; settings: mdck-mdr1, 0.5 h
# Chain of ATP-dependent translocase ABCB1 (P08183 whole entry): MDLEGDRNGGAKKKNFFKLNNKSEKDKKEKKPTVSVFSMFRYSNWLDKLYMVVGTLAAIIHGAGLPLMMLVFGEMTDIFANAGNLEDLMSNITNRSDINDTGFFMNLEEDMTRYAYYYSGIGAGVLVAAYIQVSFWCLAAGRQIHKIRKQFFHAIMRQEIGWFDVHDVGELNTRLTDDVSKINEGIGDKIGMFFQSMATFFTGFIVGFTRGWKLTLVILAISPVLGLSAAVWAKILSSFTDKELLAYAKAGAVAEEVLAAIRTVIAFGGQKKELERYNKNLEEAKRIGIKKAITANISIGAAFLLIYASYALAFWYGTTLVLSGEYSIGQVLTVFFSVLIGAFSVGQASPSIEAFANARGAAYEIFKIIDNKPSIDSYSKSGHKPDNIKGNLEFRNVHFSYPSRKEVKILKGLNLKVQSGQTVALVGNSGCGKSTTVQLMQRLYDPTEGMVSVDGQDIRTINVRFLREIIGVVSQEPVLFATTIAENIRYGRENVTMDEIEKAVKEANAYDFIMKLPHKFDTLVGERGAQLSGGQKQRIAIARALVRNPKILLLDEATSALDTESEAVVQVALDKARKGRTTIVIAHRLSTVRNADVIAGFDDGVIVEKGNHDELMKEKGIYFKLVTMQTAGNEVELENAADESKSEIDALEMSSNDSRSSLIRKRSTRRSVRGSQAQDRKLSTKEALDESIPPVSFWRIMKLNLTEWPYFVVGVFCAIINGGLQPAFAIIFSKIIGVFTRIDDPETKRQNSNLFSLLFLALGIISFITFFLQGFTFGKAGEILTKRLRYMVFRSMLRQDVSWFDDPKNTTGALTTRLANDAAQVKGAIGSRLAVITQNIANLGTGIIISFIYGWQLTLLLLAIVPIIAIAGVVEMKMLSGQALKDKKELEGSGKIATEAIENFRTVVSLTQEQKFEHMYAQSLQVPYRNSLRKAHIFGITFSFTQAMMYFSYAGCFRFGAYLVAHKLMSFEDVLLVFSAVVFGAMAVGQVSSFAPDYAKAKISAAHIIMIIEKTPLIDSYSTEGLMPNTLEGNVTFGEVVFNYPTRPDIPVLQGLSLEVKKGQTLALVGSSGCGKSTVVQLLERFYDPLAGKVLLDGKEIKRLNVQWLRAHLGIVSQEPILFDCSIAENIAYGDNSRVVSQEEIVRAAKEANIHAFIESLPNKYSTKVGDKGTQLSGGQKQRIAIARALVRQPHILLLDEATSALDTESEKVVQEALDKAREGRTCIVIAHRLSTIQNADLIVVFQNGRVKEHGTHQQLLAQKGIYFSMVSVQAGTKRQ
fold change (FC) [1],Structure (SMILES),Ratio IC50 (Homo sapiens)
–,COc1cc2c(c(OC)c1OC)-c1c(cc3c(c1OC)OCO3)CC(C)C(C)C2 (centres undefined),23.5
9,CC(C)C(=O)OC(C)(C)[C@@H]1Cc2c(ccc3ccc(=O)oc23)O1,–
–,COc1cc2c(c(OC)c1OC)-c1c(cc(OC)c(OC)c1OC)C[C@](C)(O)[C@@H](C)C2,3.8
–,COc1cc2c(c(OC)c1OC)-c1c(cc(OC)c(OC)c1OC)C[C@H](C)[C@H](C)C2,309
